From patent US12532887B2, “Method for controlling pests of potato plants” (BASF SE, priority 2018, dated 2026)
Where two headings read alike, the source gives them in different places.

Tests used:
[1] = test system: Colorado Potato Beetle (CPB, Leptinotarsa decemlineata); assay: Colorado Potato Beetle dipping bioassay (foliar method) with potato plants; format: in vivo; conditions: for Activity against CPB by potato plant dipping assay / Feeding damage protection of potato plants, Feeding Protection (%) / Feeding damage protection of potato plants (%), Control corrected: 100 ppm; for Feeding damage protection of potato plants, Feeding Protection (%) / Feeding damage protection of potato plants (%), Control corrected / mortality at 100 ppm: leaf dipping, 2nd instar CPB, 5 days after infest; for mortality at 100 ppm: Leptinotarsa decemlineata, foliar, 120 h
Description: 2. Method: Colorado Potato Beetle (CPB, Leptinotarsa decemlineata) Dipping Bioassay (Foliar Method) with Potato Plants Serial dilutions of TGAI are made in 50:50 (acetone: H2O) 0.01% kinetic solvent solution. Potato plant true leaves are snipped off the plant, treated by dipping method in a bowl with acetone-resistant plastic liner and inserted into a glass flask filled with water of the stem part to prevent dehydration of the leaves. Leaves are air-dried in hood, and transferred to petri dishes preset with a filter paper soaked with 2.5 ml water. The leaves are infested with five 2nd instar CPB per dish. 6 replicates/treatment and one rate (100 ppm)/test analog. Petri dishes are held for 5 days after infest at a […], 50% RH and 14/10 light/dark cycle in walk-in chamber. Both plant feeding damage and mortality of CPB were evaluated.

[2] = test system: Colorado Potato beetle, Leptinotarsa decimlineata; assay: Field trial, foliar application on potato, feeding damage assessment; format: in vivo
Description: 1. Potato-Colorado Potato Beetle, Leptinotarsa decimlineata:
Foliar application: Field trials were set up. The plots were laid out in 5-meter rows with 4 replications. Applications of Compound I-R-1 was done. Feeding damage assessments were taken at 6, 15 and 20 days after application for the entire plot.

[3] = control corrected, read-out: Mortality of CPB (%), Control corrected
[4] = read-out: Mortality of CPB, Mortality (%)

| Compound | Activity against CPB by potato plant dipping assay [1] | Feeding damage protection of potato plants, Feeding Protection (%) [1] | Feeding damage protection of potato plants (%), Control corrected ([1]; control corrected) | mortality at 100 ppm [1, 3] | mortality at 100 ppm [1, 4] | Efficacy against L. decimlineata as foliar application in terms of reduction in feeding damage ([2]; foliar application (Table 2)) | Feeding damage (%) A06 ([2]; foliar treatment, 60 g ai/ha, 6 days after application, entire plot) | Feeding damage (%) A15 ([2]; foliar treatment, 60 g ai/ha, 15 days after application, entire plot) | Feeding damage (%) A20 ([2]; foliar treatment, 60 g ai/ha, 20 days after application, entire plot) |
| --- | --- | --- | --- | --- | --- | --- | --- | --- | --- |
| C[n+]1c([O-])c(-c2ccccc2)c(=O)n2c1SC[C@@H]2c1cnc(Cl)s1 [Compound (I-R-1)] | active | 90.83% | 90.40% | 80% | 80% | good efficacy | 6.5% | 5.0% | 8.0% |
| C[n+]1c([O-])c(-c2ccccc2)c(=O)n2c1OCC2c1cnc(Cl)s1 (stereo not drawn) [Compound C-19, reference compound] | inactive | 5.00% | 0.00% | 3.33% | 3.33% |  |  |  |  |
| C[n+]1c([O-])c(-c2ccccc2)c(=O)n2c1CCC2c1cnc(Cl)s1 (stereo not drawn) [Compound C-6, reference compound] | inactive | 11.67% | 7.00% | 0% | 0% |  |  |  |  |
| C[n+]1c([O-])c(-c2ccccc2)c(=O)n2c1SCC2c1cnc(Cl)s1 (racemic) [Compound (I)] | active | 89.17% | 88.60% | 56.7% | 56.7% |  |  |  |  |
